These results are taken from ChEMBL document CHEMBL4414640, “Antiproliferative Pterocarpans and Coumestans from Lespedeza bicolor” (2019).

In test [1] the test system is Jurkat. As to the kind of experiment: Antiproliferative activity against human Jurkat cells at 5 to 100 uM incubated for 48 hrs by MTS assay. The test is classed as functional, cell-based. (Formazan colour is commonly taken as a measure of viable cells.)
In test [2] the test system is Jurkat. As to the kind of experiment: Induction of apoptosis in human Jurkat cells at 10 uM incubated for 24 to 48 hrs by phase contrast microscopic method. The class given is functional, cell-based.
In test [3] the test system is Jurkat. As to the kind of experiment: Induction of apoptosis in human Jurkat cells assessed as viable cells at 10 uM incubated 48 hrs by annexin-V and 7AAD staining based flow cytometry (reference value: 91.9%). The test is classed as functional. As to conditions: read-out: Activity. Background: In flow cytometry, cells or beads pass a laser one at a time.
The subject of test [4] is Jurkat. The test is described as follows: Induction of apoptosis in human Jurkat cells assessed as early apoptotic cells at 10 uM incubated 48 hrs by annexin-V and 7AAD staining based flow cytometry (reference value: 3.16%). The test is classed as functional.
Test [5] relates to Jurkat. The test is described as follows: Induction of apoptosis in human Jurkat cells assessed as late apoptotic cells at 10 uM incubated 48 hrs by annexin-V and 7AAD staining based flow cytometry (reference value: 3.78%). The test is classed as functional.
The subject of test [6] is Jurkat. As to the kind of experiment: Induction of apoptosis in human Jurkat cells assessed as necrotic cells at 10 uM incubated 48 hrs by annexin-V and 7AAD staining based flow cytometry (reference value: 1.16%). The class given is functional.
The test system of test [7] is Jurkat. As to the kind of experiment: Induction of apoptosis in human Jurkat cells assessed as downregulation in BCL2 protein expression at 10 uM incubated for 48 hrs by Western blot analysis. The class given is functional, cell-based. (In western blotting, separated proteins are transferred to a membrane and probed.)
For test [8], the system named is Jurkat. The test is described as follows: Induction of apoptosis in human Jurkat cells assessed as increase in PARP cleavage at 10 uM incubated for 48 hrs by Western blot analysis. The test is classed as functional, cell-based.
Test [9] has as its system Jurkat. As to the kind of experiment: Induction of mitochondrial membrane potential loss in human Jurkat cells assessed as membrane potential at 10 uM incubated for 48 hrs by TMRM staining based flow cytometric analysis (reference value: 94.1%). The class given is functional.
Test [10] concerns Jurkat. As to the kind of experiment: Induction of cell cycle arrest in human Jurkat cells assessed as accumulation at G1 phase at 10 uM incubated for 48 hrs by PI staining based cell counting method (reference value: 71.4%). The class given is functional.
Test [11] has as its system Jurkat. As to the kind of experiment: Induction of cell cycle arrest in human Jurkat cells assessed as accumulation at S phase at 10 uM incubated for 48 hrs by PI staining based cell counting method (reference value: 12.2%). The class given is functional.
Test [12] has as its system Jurkat. The test is described as follows: Induction of cell cycle arrest in human Jurkat cells assessed as accumulation at G2/M phase at 10 uM incubated for 48 hrs by PI staining based cell counting method (reference value: 16.7%). The test is classed as functional.

Calls of active or inactive are those of the source. The rule behind the calls is not given here.

As to `COc1c(CC=C(C)C)c(O)cc2c1[C@@H]1Oc3c(ccc4c3C=CC(C)(C)O4)[C@@H]1CO2`, the result in [1] was Active.
Turning to `COc1cc2c(cc1O)OC1c3c(OC)cc(O)c(C/C=C(\C)CCC=C(C)C)c3OCC21` (stereo unspecified), the result in test [1], in test [2], in test [7] and in test [8] was Active. For the same compound, the viability at 10 µM in test [3] amounted to 43.9%. Further, the Activity was found to be 11.3% in [4]; 40.4% in test [5]; 4.43% in [6]; 46.8% in test [9]; 82.1% in test [10]; 8.78% in test [11]. Besides, the Activity in test [12] stood at 9.3%.
As to `COc1c(CC=C(C)C)c(O)cc(O)c1-c1oc2c3c(c(O)cc2c1C=O)OC(C)(C)C=C3`, in test [1], the outcome was Active.
As for `COc1c(CC=C(C)C)c(O)cc2oc(=O)c3c4cc(O)c(O)c(CC=C(C)C)c4oc3c12`, the result in test [1], in test [2], in test [7] and in test [8] was Active. The viability at 10 µM in test [3] is 37.6%. In addition, the Activity came out at 12.3% in test [4]; 46.7% in [5]; 3.4% in test [6]; 12.9% in test [9]; 82.3% in test [10]; 10.9% in [11]. Besides, the Activity in test [12] was 7.05%.
For the compound `COc1c(CC=C(C)C)c(O)cc2c1[C@@H]1Oc3c(cc(O)c4c3C=CC(C)(C)O4)[C@@H]1CO2`, the result in test [1] was Active.
On the same count and under the same terms, as for `COc1c(CC=C(C)C)c(O)cc2oc(=O)c3c4cc(O)c5c(c4oc3c12)C=CC(C)(C)O5`, the entry is “Active”; as for `COc1c(CC=C(C)C)c(O)cc2c1[C@@H]1Oc3c(ccc(O)c3CC=C(C)C)[C@@H]1CO2`, “Active”.
As to `COc1c(C/C=C(\C)CCC=C(C)C)c(O)cc2c1[C@@H]1Oc3c(cc(O)c4c3C=CC(C)(C)O4)[C@@H]1CO2`, the outcome in [1] was Active.
Same read-out and setting: then `COc1c(C/C=C(\C)CCC=C(C)C)c(O)cc(O)c1-c1oc2c3c(c(O)cc2c1C=O)OC(C)(C)C=C3`, with “Active”.
